{
  "source": "patent US6916843B1",
  "about": "“Anti-inflammatory actions of cytochrome P450 expoxygenase-derived eicosanoids” (The United States of America as represented by the …, priority 1999, dated 2005)",
  "key": {"IκB-α": {"system": "IκB-α", "test": "Fate of IκB-α after TNF-α stimulation of human endothelial cells", "assay_type": "cell-based", "settings": "TNF-α 10 ng/ml, 15 min; EET 100 nM", "excerpt": "Co-treatment with [11,12]-EET prevented the nuclear accumulation of RelA. Since the nuclear translocation of RelA requires the degradation of its endogenous cytoplasmic inhibitor, inhibitor kappa B (IκB-α), we followed the fate of IκB-α after TNF-α stimulation in the presence or absence of [11,12]-EET. Stimulation of human endothelial cells with TNF-α caused a rapid and almost complete disappearance of IκB-α which was prevented by co-treatment with [11,12]-EET, but not [14,15]-EET.\nA set of gel shift assays was performed. […] In some assays, [11,12]-EET (100 nM) was also added directly to the IKK assay (in vitro). As a control for nonspecific phosphorylation, the assay was performed without the addition of immunoprecipitated IKK (no enzyme) or in the presence of a IκB-α mutant (ΔSer 32, Ser 36→Thr) as substrate. The assay was performed three times with similar results.\nSpecificity of IKB was determined by the complete absence of phosphorylation when the mutated IκB-α substrate, GST-1κB-α (Δ32,36: S→T) which cannot be phosphorylated at serine residues 32 and 36, was substituted for wild-type GST-IκB-α."}, "[1]": {"system": "bovine aortic endothelial cells (BAECs)", "test": "Hypoxia-reoxygenation-induced cell injury in BAECs (cell number, LDH release, trypan blue)", "assay_type": "cell-based", "settings": "1 μmol/L, added 10 min prior to hypoxia (24 h hypoxia, 4 h reoxygenation)", "protocol": "Effects of P450-derived arachidonic acid metabolites on hypoxia-reoxygenalion-induced injury in BAECs. BAECs, either untransfected, or 48 hours after transfection with pcDNA3.1/GFP or pcDNA3.1/CYP2J2, or 10 min after treatment with eicosanoids, epoxide hydrolase inhibitors or vehicle, were exposed to hypoxia (95% nitrogen plus 5% carbon dioxide) for 24 hours, followed by reoxygenation (95% air plus 5% carbon dioxide) for 4 hours using an environmental chamber within a 37° C. incubator. Cells maintained under continuous (28 hours) normoxic conditions served as controls.\nEETs were prepared by total chemical synthesis as previously described (Corey el al., 102 J. Am. Chem. Soc. 1433-1435 (1980), Falck et al., 23 Tetrahedron Lett. 1755-1756 (1982)). DHETs were prepared by chemical hydration of EETs as described by Capdevila et al., 187 Methods Enzymol. 386-394 (1990). Synthetic EETs and DHETs were purified by reverse-phase HPLC prior to use. BAECs, grown to ˜85% confluency, were treated with either synthetic [11,12]-EET, [11,12]-DHET, or [14,15]-EET in ethanol vehicle (1 μmol/L each, final concentration) for 10 min prior to exposure to hypoxia-reoxygenation. […] Cells treated with vehicle alone served as controls.\nAfter hypoxia-reoxygenation, the cell number was determined using a hemocytometer and the degree of cell injury was assessed by measuring lactate dehydrogenase release into the culture medium using the CytoTox 96 Non-Radioactive Cytotoxicity Assay Kit (Promega, Madison, Wis.) and by counting the number of trypan blue dye stained cells. Data are expressed as a percentage of values obtained from control cells maintained under normoxic conditions."}, "[2]": {"system": "mononuclear cell adhesion to carotid artery", "test": "TNF-α-induced mononuclear cell (U937) adhesion in the murine carotid artery", "assay_type": "in vivo", "settings": "mouse, intra-arterial infusion 100 ng/kg/min, TNF-α 10 μg/kg i.p., 5 hours", "protocol": "FIG. 3A is a graph showing the expression of VCAM-1 in the murine carotid artery at 5 hours after treatment with intraperitaneal injection of TNF-α (10 μg/kg) alone or in combination with continuous intra-arterial infusion of [11,12]-EET (100 ng/kg/min). FIG. 3B is a bar graph showing the effect of [11,12]-EET on TNF-α induced mononuclear cell adhesion in the murine carotid artery. The mononuclear cells (U937) were perfused through the carotid artery at a wall shear stress of 3 dyn/cm^2. Intra-arterial infusion of vehicle (saline) or [14,15]-EET (100 ng/kg/min) had no effect. […] All experiments except the [14,15]-EET infusion were performed in duplicate.\nTo determine the functional relevance of EETs in vascular inflammation, we tested [11,12]-EET and its regioisomer [14,15]-EET in a recently developed in vivo model of TNF-α-induced VCAM-1 -mediated mononuclear cell adhesion in the murine carotid artery. […]\nCell rolling and adhesion were recorded on videotape using stroboscopic epifluoresence illumination with an introvital microscope (objective Zeiss 20×, 0.5 numerical aperture). […] In separate experiments, VCAM-1 expression was measured in paraffin-sections (5 μm thick) of carotid arteries harvested from mice treated in the same way. […]"}, "VCAM-1 expression": {"system": "VCAM-1 expression", "test": "Cell-surface enzyme immunoassay of cytokine-induced VCAM-1 expression in endothelial cells", "assay_type": "cell-based, human", "settings": "human endothelial cells, 1-100 nM, TNF-α", "protocol": "FIG. 2 is a set of bar graphs of cell-surface enzyme immunoassays. […] The difference between treatment with TNF-α alone and in the presence of [11,12]-EET were statistically significant (*p<0.05, **p<0.01), OD, optical density. […] After stimulation with TNF-α (10 ng/ml) in the presence or absence of EET, promoter activity was determined relative to basal activity. *p<0.01 vs. TNF-α alone.\nTo determine the biological effects of EETs, we treated tumor necrosis factor alpha (TNF-α)-stimulated human endothelial cells with physiological relevant concentrations (1-100 nM) of [5,6]-EET, [8,9]-EET, [11,12]-EET, [14,15]-EET, [11,12]-DHET."}, "[3]": {"biological_target": "purified GST-IκB-α fusion protein (wild-type) (UniProt P25963)", "sequence (P25963 1-54)": "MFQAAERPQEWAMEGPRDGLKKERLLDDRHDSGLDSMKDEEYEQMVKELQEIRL"}, "[4]": {"biological_target": "mutated IκB-α substrate GST-IκB-α (Δ32,36: S→T) (UniProt P25963)", "sequence (P25963 other isoform, or with tags, fused parts or gaps mutant)": "as the sequence (P25963 1-54) above, with S32T, S36T counted along it"}},
  "note": "“Also recorded” adds a separate entry of the source. Peptide text beside a SMILES is read from it. * marks the point of attachment. Cbz = O=C(OCc1ccccc1)*",
  "data": [
    {"compound": "CC(C)C[C@@H](C=O)NC(=O)[C@H](CC(C)C)NC(=O)[C@H](CC(C)C)NC(=O)OCc1ccccc1", "note": "[MG132, reference compound] (Cbz-Leu-Leu-Leu-aldehyde)", "values": [
      {"measurement": "effect on TNF-α-induced disappearance/degradation of IκB-α", "setting": "IκB-α", "value": "prevented"}
    ]},
    {"compound": "CCCCCC1OC1C/C=C\\C/C=C\\C/C=C\\CCCC(=O)O", "note": "(stereo not drawn) [[14,15]-EET]", "values": [
      {"measurement": "hypoxia-reoxygenation-induced cell injury, number of trypan blue stained cells", "setting": "[1]", "value": "active in attenuating; also recorded: significantly attenuates"},
      {"measurement": "mononuclear cell adhesion to the vessel wall", "setting": "[2]", "value": "had no effect"},
      {"measurement": "inhibition of TNF-α-induced VCAM-1 expression (rank/words)", "setting": "VCAM-1 expression", "value": "did not inhibit"}
    ]},
    {"compound": "IκB kinase (IKK) immunoprecipitated from human endothelial cells", "values": [
      {"measurement": "IKK activity (phosphorylation of GST-IκB-α substrate)", "setting": "[3]", "value": "Stimulation with TNF-α caused an increase in IKK activity"},
      {"measurement": "IKK activity (phosphorylation of mutated substrate)", "setting": "[4]", "value": "complete absence of phosphorylation when the mutated IκB-α substrate, GST-1κB-α (Δ32,36: S→T) which cannot be phosphorylated at serine residues 32 and 36, was substituted for wild-type GST-IκB-α"}
    ]}
  ]
}
